Data as given in patent US10568950B1, “Peptides, combination of peptides and scaffolds for use in immunotherapeutic treatment of various cancers” (Immatics Biotechnologies GmbH, priority 2015, dated 2020).

Tests used:
[1] = test system: CD8+ T cells of healthy HLA-A*24+ donors; test: In vitro immunogenicity: priming of CD8+ T cells with aAPCs loaded with HLA-A*24/peptide complexes and anti-CD28, multimer staining; format: cell-based, human; settings: for Wells positive [%]: in vitro immunogenicity, HLA-A*24 peptides of Table 12B; for wells: in vitro immunogenicity of HLA class I peptides, share of positive wells, peptides of Table 3 (HLA-A*24 binding)
Protocol: CD8+ T cells were primed using artificial APCs coated with anti-CD28 mAb and HLA-A*24 in complex with SEQ ID NO: 99 peptide (FIG. 5A, left panel), SEQ ID NO: 119 peptide (FIG. 5B, left panel), SEQ ID NO: 142 peptide (FIG. 5C, left panel) and SEQ ID NO: 174 peptide (FIG. 5D, left panel), respectively. After three cycles of stimulation, the detection of peptide-reactive cells was performed by 2D multimer staining with A*24/SEQ ID NO: 99 (A), A*24/SEQ ID NO: 119 (B), A*24/SEQ ID NO: 142 (C) or A*24/SEQ ID NO: 174 (D). Right panels (FIGS. 5A, 5B, 5C and 5D) show control staining of cells stimulated with irrelevant A*24/peptide complexes. Viable singlet cells were gated for CD8+ lymphocytes. Boolean gates helped excluding false-positive events detected with multimers specific for different peptides. Frequencies of specific multimer+ cells among CD8+ lymphocytes are indicated.
In order to obtain information regarding the immunogenicity of the TUMAPs of the present invention, the inventors performed investigations using an in vitro T-cell priming assay based on repeated stimulations of CD8+ T cells with artificial antigen presenting cells (aAPCs) loaded with peptide/MHC complexes and anti-CD28 antibody.
PBMCs and isolated CD8+ lymphocytes were incubated in T-cell medium (TCM) until use consisting of RPMI-Glutamax (Invitrogen, Karlsruhe, Germany) supplemented with 10% heat inactivated human AB serum (PAN-Biotech, Aidenbach, Germany), 100 U/ml Penicillin/100 μg/ml Streptomycin (Cambrex, Cologne, Germany), 1 mM sodium pyruvate (CC Pro, Oberdorla, Germany), 20 μg/ml Gentamycin (Cambrex). 2.5 ng/ml IL-7 (PromoCell, Heidelberg, Germany) and 10 U/ml IL-2 (Novartis Pharma, Nurnberg, Germany) were also added to the TCM at this step.
Generation of pMHC/anti-CD28 coated beads, T-cell stimulations and readout was performed in a highly defined in vitro system using four different pMHC molecules per stimulation condition and 8 different pMHC molecules per readout condition.
The purified co-stimulatory mouse IgG2a anti human CD28 Ab 9.3 (Jung et al., 1987) was chemically biotinylated using Sulfo-N-hydroxysuccinimidobiotin as recommended by the manufacturer (Perbio, Bonn, Germany). Beads used were 5.6 μm diameter streptavidin coated polystyrene particles (Bangs Laboratories, Illinois, USA).
800.000 beads/200 μl were coated in 96-well plates in the presence of 4×12.5 ng different biotin-pMHC, washed and 600 ng biotin anti-CD28 were added subsequently in a volume of 200 μl. Stimulations were initiated in 96-well plates by co-incubating […] CD8+ T cells with 2×10^5 washed coated beads in 200 μl TCM supplemented with 5 ng/ml IL-12 (PromoCell) for 3 days at 37° C. Half of the medium was then exchanged by fresh TCM supplemented with 80 U/ml IL-2 and incubating was continued for 4 days at 37° C. This stimulation cycle was performed for a total of three times. For the pMHC multimer readout using 8 different pMHC molecules per condition, a two-dimensional combinatorial coding approach was used as previously described (Andersen et al., 2012) with minor modifications encompassing coupling to 5 different fluorochromes. Finally, multimeric analyses were performed by staining the cells with Live/dead near IR dye (Invitrogen, Karlsruhe, Germany), CD8-FITC antibody clone SKI (BD, Heidelberg, Germany) and fluorescent pMHC multimers. For analysis, a BD LSRII SORP cytometer equipped with appropriate lasers and filters was used. Peptide specific cells were calculated as percentage of total CD8+ cells. Evaluation of multimeric analysis was done using the FlowJo software (Tree Star, Oreg., USA). In vitro priming of specific multimer+ CD8+ lymphocytes was detected by comparing to negative control stimulations.

[2] = test system: HLA-A*24; test: MHC binding assay: UV-ligand exchange, beta2m ELISA (peptide exchange yield); parameters: species or system human; settings: binding to HLA-A*24, β2m ELISA
Excerpt: Candidate peptides for T cell based therapies according to the present invention were further tested for their MHC binding capacity (affinity). The individual peptide-MHC complexes were produced by UV-ligand exchange, where a UV-sensitive peptide is cleaved upon UV-irradiation, and exchanged with the peptide of interest as analyzed. Only peptide candidates that can effectively bind and stabilize the peptide-receptive MHC molecules prevent dissociation of the MHC complexes. To determine the yield of the exchange reaction, an ELISA was performed based on the detection of the light chain (β2m) of stabilized MHC complexes. The assay was performed as generally described in Rodenko et al. (Rodenko et al., 2006).
96 well MAXISorp plates (NUNC) were coated over night with 2 ug/ml streptavidin in PBS at room temperature, washed 4× and blocked for 1 h at 37° C. in 2% BSA containing blocking buffer. […] Peptide-MHC monomers of the UV-exchange reaction were diluted 100 fold in blocking buffer. Samples were incubated for 1 h at 37° C., washed four times, incubated with 2 ug/ml HRP conjugated anti-βm for 1 h at 37° C., washed again and detected with TMB solution that is stopped with […]. Absorption was measured at 450 nm. Candidate peptides that show a high exchange yield (preferably higher than 50%, most preferred higher than 75%) are generally preferred for a generation and production of antibodies or fragments thereof, and/or T cell receptors or fragments thereof, as they show sufficient avidity to the MHC molecules and prevent dissociation of the MHC complexes.

| Substance | Wells positive [%] [1] | Peptide exchange (MHC class I binding score, peptide exchange yield) [2] | wells [1] |
| --- | --- | --- | --- |
| 96 (YYTQYSQTI; listed as Homo sapiens) [compound 96] | + (<20% = +) | ++++ (>= 75% = ++++) | – |
| 99 (QYILAVPVL; listed as Homo sapiens) [compound 99] | +++ (50%-69% = +++) | ++++ (>= 75% = ++++) | – |
| 104 (SYLTWHQQI; listed as Homo sapiens) [compound 104] | + (<20% = +) | ++++ (>= 75% = ++++) | – |
| 109 (LFITGGQFF; listed as Homo sapiens) [compound 109] | ++ (20%-49% = ++) | ++++ (>= 75% = ++++) | – |
| 114 (QYLDGTWSL; listed as Homo sapiens) [compound 114] | +++ (50%-69% = +++) | ++++ (>= 75% = ++++) | – |
| 120 (GYIEHFSLW; listed as Homo sapiens) [compound 120] | ++ (20%-49% = ++) | ++++ (>= 75% = ++++) | – |
| 132 (RYPALFPVL; listed as Homo sapiens) [compound 132] | + (<20% = +) | ++++ (>= 75% = ++++) | – |
| 137 (EYLHNCSYF; listed as Homo sapiens) [compound 137] | + (<20% = +) | ++++ (>= 75% = ++++) | – |
| 140 (RYLINSYDF; listed as Homo sapiens) [compound 140] | +++ (50%-69% = +++) | ++++ (>= 75% = ++++) | – |
| 144 (VFASLPGFLF; listed as Homo sapiens) [compound 144] | ++ (20%-49% = ++) | ++++ (>= 75% = ++++) | – |
| 155 (IYKWITDNF; listed as Homo sapiens) [compound 155] | ++ (20%-49% = ++) | ++++ (>= 75% = ++++) | – |
| 156 (YYMELTKLLL; listed as Homo sapiens) [compound 156] | + (<20% = +) | ++++ (>= 75% = ++++) | – |
| 163 (RYLTISNLQF; listed as Homo sapiens) [compound 163] | + (<20% = +) | ++++ (>= 75% = ++++) | – |
| 164 (HYVPATKVF; listed as Homo sapiens) [compound 164] | + (<20% = +) | – | – |
| 166 (FYTLPFHLI; listed as Homo sapiens) [compound 166] | ++++ (>= 70 % = ++++) | ++++ (>= 75% = ++++) | – |
| 167 (RYGFYYVEF; listed as Homo sapiens) [compound 167] | ++++ (>= 70 % = ++++) | – | – |
| 168 (RYLEAALRL; listed as Homo sapiens) [compound 168] | +++ (50%-69% = +++) | – | – |
| 171 (NYEDHFPLL; listed as Homo sapiens) [compound 171] | ++ (20%-49% = ++) | – | – |
| 174 (VYEKNGYIYF; listed as Homo sapiens) [compound 174] | ++++ (>= 70 % = ++++) | – | – |
| 175 (LYSPVPFTL; listed as Homo sapiens) [compound 175] | + (<20% = +) | – | – |
| 177 (VYFKAGLDVF; listed as Homo sapiens) [compound 177] | + (<20% = +) | – | – |
| 179 (TYIPVGLGRLL; listed as Homo sapiens) [compound 179] | +++ (50%-69% = +++) | – | – |

| Substance | Wells positive [%] [1] | Peptide exchange (MHC class I binding score, peptide exchange yield) [2] | wells [1] |
| --- | --- | --- | --- |
| 180 (KYLQVVGMF; listed as Homo sapiens) [compound 180] | + (<20% = +) | – | – |
| 181 (VYPPYLNYL; listed as Homo sapiens) [compound 181] | ++++ (>= 70 % = ++++) | – | – |
| 190 (LYSELTETL; listed as Homo sapiens) [compound 190] | ++++ (>= 70 % = ++++) | – | – |
| 277 (FYTFPFQQL; listed as Homo sapiens) [compound 277] | +++ (50%-69% = +++) | – | – |
| 344 (EYNSDLHQF; listed as Homo sapiens) [compound 344] | + (<20% = +) | – | – |
| 345 (EYNSDLHQFF; listed as Homo sapiens) [compound 345] | ++ (20%-49% = ++) | – | – |
| 349 (QYSIISNVF; listed as Homo sapiens) [compound 349] | ++ (20%-49% = ++) | – | – |
| 350 (KYGNFIDKL; listed as Homo sapiens) [compound 350] | +++ (50%-69% = +++) | – | – |
| 351 (IFHEVPLKF; listed as Homo sapiens) [compound 351] | ++ (20%-49% = ++) | – | – |
| 353 (TYGKIDLGF; listed as Homo sapiens) [compound 353] | + (<20% = +) | – | – |
| 354 (VYNEQIRDLL; listed as Homo sapiens) [compound 354] | + (<20% = +) | – | – |
| 358 (YYSEVPVKL; listed as Homo sapiens) [compound 358] | ++++ (>= 70 % = ++++) | – | – |
| 360 (VFSPDGHLF; listed as Homo sapiens) [compound 360] | ++ (20%-49% = ++) | – | – |
| 363 (SYAELGTTI; listed as Homo sapiens) [compound 363] | + (<20% = +) | – | – |
| 366 (QYLELAHSL; listed as Homo sapiens) [compound 366] | ++ (20%-49% = ++) | – | – |
| 367 (LYQDHMQYI; listed as Homo sapiens) [compound 367] | ++ (20%-49% = ++) | – | – |
| 371 (AYSHLRYVF; listed as Homo sapiens) [compound 371] | ++ (20%-49% = ++) | – | – |
| 393 (KYIEAIQWI; listed as Homo sapiens) [compound 393] | – | – | ++ (20%-49% = ++) |
| 399 (SYIDVLPEF; listed as Homo sapiens) [compound 399] | – | – | ++ (20%-49% = ++) |
| 400 (KYLEKYYNL; listed as Homo sapiens) [compound 400] | – | – | ++ (20%-49% = ++) |
| 407 (VYGIRLEHF; listed as Homo sapiens) [compound 407] | – | – | +++ (50%-69% = +++) |
| 414 (MYPYIYHVL; listed as Homo sapiens) [compound 414] | – | – | ++ (20%-49% = ++) |
